System: hyperlipemia guinea pigs
Test: Effect on serum cholesterol and triglyceride in hyperlipemia guinea pigs (high-cholesterol feed, 30 days)
Format: in vivo, guinea pig
Details: for Serum TC (total cholesterol) / Serum TG (triglyceride): guinea pigs on high-cholesterol feed (basic feed+0.5% cholesterol) plus 10 mg/(kg·d) compound for 30 days, serum taken 24 h after last feeding, n=10
Procedure: The test was performed as described in Fuhua, Wang, Chinese Journal of Surgery, 1991; 8 (1): 17. 60 healthy guinea pigs of 200-500 g were randomly divided into 6 groups based on body weight and sex. Each group contained 10 animals, including both male and female. The guinea pigs of Group 1 were fed with high-cholesterol feed (basic feed+0.5% cholesterol) at an amount of 20 g per 100 g body weight per day. Groups 2, 3, 4, 5 were test groups, the guinea pigs of which were fed with high-cholesterol feed plus 10 mg/(kg·d) of Compound (1), (2), (3) or (4) for 30 days. The guinea pigs of Group 6 were fed with basic feed only. The feeding for each group continued for 30 days, and 24 hours after the last feeding, the guinea pigs were anaesthetized i.p. with 1 g/kg Urethane. Blood was taken from heart, and serum was separated. The level of serum total cholesterol (TC) and triglyceride (TG) were determined.
In the above procedure, cholesterol was determinated by enzymatic analysis, using enzymatic agent assay kit from BGH Company (Taiwan). All the operations were carried out according to the manufacturer's instruction, and the determination was accomplished in ENCOREII automatic biochemistry analyser.

Row | Substance | Serum TC (total cholesterol) [mmol/L] | Serum TG (triglyceride) [mmol/L] | Effect on the level of serum TC and TG (in words) (10 mg/(kg·d)×30d, hyperlipemia guinea pigs)
1 | neotoralactone [Compound (1)] | 4.21 ± 1.9 | 1.21 ± 0.3 | 
2 | neotoralactone-6-O-β-D-galactoside [Compound (4)] | 3.71 ± 1.1 | 1.22 ± 0.2 | 
3 | neotoralactone-6-O-β-D-glucoside [Compound (2)] |  |  | most prominent
4 | neotoralactone-8-O-β-D-glucoside [Compound (3)] | 3.81 ± 0.9 | 1.18 ± 0.2 | 

Reference: patent US20040044067A1, “Toralactone and its derivation and the use of decreasing blood-fat and losing weight” (priority 2000, published 2004)
